Experimental data reported in US20070259966A1, “Coadministration of Radiation, Efaproxiral Sodium, and Supplemental Oxygen for the Treatment of Cancer” (ALLOS THERAPEUTICS, INC., priority 2004, published 2007).

Experiments:
[1] = system: patients with brain metastases; assay: Quality of life: Karnofsky Performance Status (KPS); type: in vivo, human
Experimental: (§1) C. Quality of Life. Quality of life was determined by means of the Spitzer Questionnaire (SQ) and Karnofsky Performance Status (KPS) assessment. The tests were performed at baseline, at WBRT day 10, and at all routine follow-up visits. A sustained drop in the KPS score to less than 60 was defined as a significant drop. The 5 questions comprising the Spitzer Questionnaire were weighted evenly. For each evaluation with at least 3 out of 5 questions answered, an average score was computed for each patient. Questionnaires with fewer than 3 questions answered were treated as missing data. The protocol specified a sustained drop in the Spitzer Questionnaire score of 2 points constituted a significant drop.

[2] = system: patients with brain metastases; assay: Quality of life: Spitzer Questionnaire (SQ); type: in vivo, human
Experimental: as §1

[3] = system: patients with brain metastases; assay: Safety / treatment-emergent adverse events in the controlled study; type: in vivo, human
Experimental: Depending upon an individual patient's resaturation time (time required to recover to a stable ≧90% SpO2 on room air) following efaproxiral sodium plus WBRT, supplemental oxygen use may be required for as little as 30 minutes to more than 4 hours. […] During this period of decreased oxygen saturation, patients require continuous SpO2 monitoring. If the desired SpO2 of ≧90% while breathing room air is not achieved, supplemental oxygen is to be continued and increased to a flow of 6-8 L/min, if necessary, until the SpO2 while breathing room air is stabilized at ≧90%.
Patients with brain metastases were administered efaproxiral sodium in a total dose of 0-100 mg/kg per day based on the dosing guidelines detailed above. In general, efaproxiral sodium is administered by intravenous infusion through a central venous access device over 30 minutes at a dose of 75 or 100 mg/kg daily with concurrent supplemental oxygen. Oxygen must be administered at 4 L/min via nasal cannula or facemask beginning 5 minutes prior to initiation of infusion, during infusion and WBRT, and for at least 15 minutes after completion of daily WBRT. Efaproxiral sodium is administered every day of a fractionated course of WBRT. Except when contraindicated, WBRT must be administered within 30 minutes of the end of the efaproxiral sodium infusion.
The patients were given the drug in one dose. Efaproxiral sodium was administered via central venous access with flow rate controlled by volumetric pump over a 30-45 minute interval with end-infusion no longer than 30 minutes prior to each radiation dose of a 10-day course of WBRT. Efaproxiral sodium was formulated as a sterile solution for injection and was supplied in single-use glass bottles containing 10 g efaproxiral sodium in 500 mL of 0.225% NaCl at a concentration of 20 mg/mL. Efaproxiral sodium was administered during the 10-day course of WBRT, for a maximum of 10 doses. A control group received radiation and supplemental oxygen only.
The majority of treatment-emergent adverse events were Grade 1 or 2 in severity, resolved spontaneously or within the duration of the study, and responded well to concomitant treatment with antiemetics for nausea/vomiting, nonsteroidal anti-inflammatory drugs for headache, supplemental oxygen for hypoxemia. […] Muscle weakness and dyspnea (reported in 3% of patients) were the most commonly reported Grade 3 adverse events in Control patients and both events were reported as a Grade 4 event in 1 patient each. The most commonly reported Grade 4 adverse event in both treatment and control groups was disease progression (reported in 6% of both groups).

[4] = Plasma and red blood cell (RBC) drug concentration; type: in vivo, human
Experimental: (§2) Plasma and red blood cell (RBC) drug concentration were assayed on 2 days during the course of efaproxiral sodium administration: WBRT day 1 (end-infusion) and on 1 single day between WBRT days 6 and 10 (pre-infusion and end-infusion assays). Regression analysis was used to explore the relationship between trough and peak concentrations and continuous clinical covariates (eg, age, serum albumin, hematocrit, serum creatinine, etc). […] A dose of efaproxiral sodium was considered predicatably therapeutic if it achieved a sufficient RBC concentration (>483 μg/ml), and corresponded to a predicted p50 shift of 10 mmHg.

hemoglobin = target: T1, hemoglobin (Homo sapiens, UniProt P68871+P69905); assay: Predicted p50 shift from RBC concentration; type: in vivo; settings: at RBC concentration >483 μg/ml
T1 construct: endogenous in cells; host or cells: red blood cells of treated patients (in vivo)
T1 sequence (P69905 2-142 limits assumed): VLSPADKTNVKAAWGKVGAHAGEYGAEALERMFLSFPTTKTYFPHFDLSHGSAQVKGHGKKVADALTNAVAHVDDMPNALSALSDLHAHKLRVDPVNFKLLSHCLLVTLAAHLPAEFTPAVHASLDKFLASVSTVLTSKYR
T1 sequence (P68871 2-147 limits assumed): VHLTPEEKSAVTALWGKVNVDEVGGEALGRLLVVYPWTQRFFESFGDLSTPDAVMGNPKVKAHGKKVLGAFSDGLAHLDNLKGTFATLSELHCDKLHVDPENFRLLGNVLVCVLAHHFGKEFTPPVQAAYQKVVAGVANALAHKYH
Experimental: Sometimes, efaproxiral sodium is represented by the name 2-[4-[2-[(3,5-dimethylphenyl)amino]-2-oxoethyl]phenoxy]-2-methylpropanoic acid. In general efaproxiral sodium is administered as a physiologically acceptable salt, such as the monosodium salt; that is, X+ is Na+. Efaproxiral sodium induces allosteric modification of hemoglobin, such that its binding affinity for oxygen is decreased, resulting in increased oxygen distribution to tissues by erythrocytes.
as §2

drug accumulation in RBCs ([4]; WBRT week 2 preinfusion concentrations): No clinically relevant drug accumulation
concentrations in RBCs, breast primary versus NSCLC and other primary patients ([4]; in vivo): higher
change of concentrations in RBCs with dose ([4]; patients dosed at 75 or 100 mg/kg): proportional increase
predicted p50 shift (hemoglobin): 10 mmHg
Compound: Cc1cc(C)cc(NC(=O)Cc2ccc(OC(C)(C)C(=O)O)cc2)c1 [efaproxiral sodium, 2-[4-(((3,5-dimethylanilino)carbonyl)methyl)phenoxy]-2-methylpropionic acid]
patients with stable or improving KPS scores, (%) ([1]; 1 month): (44) %
patients with stable or improving KPS scores, (%) ([1]; 3 months): (24) %
patients with stable or improving KPS scores, (%) ([1]; 6 months): (18) %
patients with stable or improving KPS scores, (%) ([1]; 12 months): (7) %
distribution of KPS score categories between treatment groups ([1]; breast primary, 6 months and 1 year (p=0.0046 and p=0.0070)): statistically significant difference
percentage of patients with stable or improving KPS scores over time versus Control ([1]; χ2=9.0096, p=0.0027): highly statistically significant
patients with stable or improving SQ scores, (%) ([2]; 1 month): (42) %
patients with stable or improving SQ scores, (%) ([2]; 3 months): (23) %
patients with stable or improving SQ scores, (%) ([2]; 6 months): (16) %
patients with stable or improving SQ scores, (%) ([2]; 12 months): (9) %
percentage of patients with stable or improving SQ scores over time versus Control ([2]; χ2=3.4675, p=0.0626): trend toward a higher percentage
Grade 4 hypoxemia ([3]; in vivo): no Grade 4 hypoxemia was reported
severity of the majority of treatment-emergent adverse events ([3]; in vivo): Grade 1 or 2
duration of supplemental oxygen required after completion of WBRT ([3]; majority of doses, patients with brain metastases from breast cancer): one hour or less
Grade 3 hypoxemia, patients reporting ([3]; most commonly reported Grade 3 adverse event): 11%
Grade 4 disease progression, patients reporting ([3]; most commonly reported Grade 4 adverse event): 6%
concentrations in RBCs, higher body weight versus low weight patients ([4]; at a given dose): higher
